In ChEMBL document CHEMBL1833824, “Effects of cyclization on stability, structure, and activity of α-conotoxin RgIA at the α9α10 nicotinic acetylcholine receptor and GABA(B) receptor” (J Med Chem, 2011):
pEC50: −log10 of the molar value.

Experiment: Activation of human alpha-9/rat alpha-10 nACHR expressed in Xenopus oocytes assessed as increase of acetylcholine-induced current
Type: cell-based
Settings: Oocyte

SMILES: CC(=O)OCC[N+](C)(C)C [ACETYLCHOLINE]
- pEC50: 4.30
